Measurements as given in patent US11219212B2, “Herbicidal composition comprising cinmethylin and imazamox” (BASF Agro B.V., priority 2015, dated 2022).

Legend:
Format in all cases: in vivo
Sorghum halepense [1] = assay: Greenhouse postemergence herbicidal activity; conditions: SORHA, 20 DAT
Protocol: (§1) The test plants have been seeded, separately for each species, in plastic containers in sandy loamy soil containing 5% of organic matter.
(§2) For the post emergence treatment, the plants were first grown to the 2 leaf station (GS 12). Here, the herbicidal compositions were suspended or emulsified in water as distribution medium and sprayed using finely distributing nozzles.
(§3) The plants have been cultivated due to their individual requirements at 10-25° C. and 20-35° C. The plants were irrigated due to their necessity.
(§4) The racemic mixture (±)-2-exo-(2-M ethylbenzyloxy)-1-methyl-4-isopropyl-7-oxabicyclo[2.2.1]heptane was used as herbicide A and formulated as emulsifiable concentrates with an active ingredient concentration of 50 g/l, 100 g/I or 750 g/I respectively.
(§5) Imazamox (herbicide B.1) was used as a water dispersible granule (70% WG).
(§6) In the following experiments, the herbicidal activity for the individual herbicidal compositions (solo and mixture applications) was assessed 20 days after treatment (DAT).
(§7) The evaluation for the damage on undesired weeds caused by the chemical compositions was carried out using a scale from 0 to 100%, compared to the untreated control plants. Here, 0 means no damage and 100 means complete destruction of the plants.
(§8) E=X+Y−(X·Y/100) where X=effect in percent using herbicide A at an application rate a; • Y=effect in percent using herbicide B at application rate b; • E=expected effect (in %) of herbicide A+herbicide B at application rates a+b.

Anthemis arvensis [2] = assay: Greenhouse postemergence herbicidal activity; conditions: herbicide A solo 500 g ai/ha, ANTAR, 20 DAT
Protocol: as §1, §2, §3, §4, §5, §6, §7, §8

Polygonum convolvulus [3] = assay: Greenhouse postemergence herbicidal activity; conditions: POLCO, 20 DAT
Protocol: as §1, §2, §3, §4, §5, §6, §7, §8

Setaria viridis [4] = assay: Greenhouse postemergence herbicidal activity; conditions: SETVI, 20 DAT
Protocol: as §1, §2, §3, §4, §5, §6, §7, §8

Avena fatua [5] = assay: Greenhouse postemergence herbicidal activity; conditions: herbicide A solo 43.8 g ai/ha, AVEFA, 20 DAT
Protocol: as §1, §2, §3, §4, §5, §6, §7, §8

Chenopodium album [6] = assay: Greenhouse postemergence herbicidal activity; conditions: CHEAL, 20 DAT
Protocol: as §1, §2, §3, §4, §5, §6, §7, §8

Sorghum halepense [7] = assay: Greenhouse preemergence herbicidal activity; conditions: herbicide A solo 62.5 g ai/ha, SORHA, 20 DAT
Protocol: as §1
(§9) The containers were irrigated gently to promote germination and growth and subsequently covered with transparent plastic hoods until the plants had rooted.
as §3, §4, §5, §6, §7, §8

Geranium dissectum = assay: Greenhouse preemergence herbicidal activity; conditions: herbicide A solo 125 g ai/ha, GERDI, 20 DAT
Protocol: as §1, §9, §3, §4, §5, §6, §7, §8

Echinochloa crus-galli = assay: Greenhouse preemergence herbicidal activity; conditions: ECHCG, 20 DAT
Protocol: as §1, §9, §3, §4, §5, §6, §7, §8

Anthemis arvensis [8] = assay: Greenhouse preemergence herbicidal activity; conditions: ANTAR, 20 DAT
Protocol: as §1, §9, §3, §4, §5, §6, §7, §8

Amaranthus retroflexus = assay: Greenhouse preemergence herbicidal activity; conditions: AMARE, 20 DAT
Protocol: as §1, §9, §3, §4, §5, §6, §7, §8

Abutilon theophrasti = assay: Greenhouse preemergence herbicidal activity; conditions: ABUTH, 20 DAT
Protocol: as §1, §9, §3, §4, §5, §6, §7, §8

Galium aparine = assay: Greenhouse preemergence herbicidal activity; conditions: GALAP, 20 DAT
Protocol: as §1, §9, §3, §4, §5, §6, §7, §8

Polygonum convolvulus [9] = assay: Greenhouse preemergence herbicidal activity; conditions: herbicide A solo 125 g ai/ha, POLCO, 20 DAT
Protocol: as §1, §9, §3, §4, §5, §6, §7, §8

Setaria viridis [10] = assay: Greenhouse preemergence herbicidal activity; conditions: SETVI, 20 DAT
Protocol: as §1, §9, §3, §4, §5, §6, §7, §8

Lolium multiflorum = assay: Greenhouse preemergence herbicidal activity; conditions: LOLMU, 20 DAT
Protocol: as §1, §9, §3, §4, §5, §6, §7, §8

Stellaria media = assay: Greenhouse preemergence herbicidal activity; conditions: STEME, 20 DAT
Protocol: as §1, §9, §3, §4, §5, §6, §7, §8

Avena fatua [11] = assay: Greenhouse preemergence herbicidal activity; conditions: AVEFA, 20 DAT
Protocol: as §1, §9, §3, §4, §5, §6, §7, §8

Chenopodium album [12] = assay: Greenhouse preemergence herbicidal activity; conditions: herbicide A solo 37.5 g ai/ha, CHEAL, 20 DAT
Protocol: as §1, §9, §3, §4, §5, §6, §7, §8

Measured: herbicidal activity

(±)-2-exo-(2-Methylbenzyloxy)-1-methyl-4-isopropyl-7-oxabicyclo[2.2.1]heptane [herbicide A]
60%: Chenopodium album [6]; herbicide A solo 43.8 g ai/ha | Lolium multiflorum; herbicide A solo 37.5 g ai/ha
0%: Anthemis arvensis [8]; herbicide A solo 50 g ai/ha | Anthemis arvensis [8]; herbicide A solo 62.5 g ai/ha | Anthemis arvensis [8]; herbicide A solo 150 g ai/ha | Anthemis arvensis [8]; herbicide A solo 200 g ai/ha | Anthemis arvensis [8]; herbicide A solo 300 g ai/ha | Amaranthus retroflexus; herbicide A solo 25 g ai/ha | Amaranthus retroflexus; herbicide A solo 37.5 g ai/ha | Amaranthus retroflexus; herbicide A solo 75 g ai/ha | Amaranthus retroflexus; herbicide A solo 100 g ai/ha | Amaranthus retroflexus; herbicide A solo 150 g ai/ha | Amaranthus retroflexus; herbicide A solo 200 g ai/ha | Amaranthus retroflexus; herbicide A solo 300 g ai/ha | Abutilon theophrasti; herbicide A solo 100 g ai/ha | Abutilon theophrasti; herbicide A solo 200 g ai/ha | Galium aparine; herbicide A solo 25 g ai/ha | Polygonum convolvulus [9] | Avena fatua [11]; herbicide A solo 50 g ai/ha
25%: Polygonum convolvulus [3]; herbicide A solo 62.5 g ai/ha | Avena fatua [5]
85%: Setaria viridis [4]; herbicide A solo 62.5 g ai/ha
98%: Echinochloa crus-galli; herbicide A solo 62.5 g ai/ha | Echinochloa crus-galli; herbicide A solo 125 g ai/ha | Setaria viridis [10]; herbicide A solo 62.5 g ai/ha | Setaria viridis [10]; herbicide A solo 75 g ai/ha
20%: Stellaria media; herbicide A solo 50 g ai/ha | Stellaria media; herbicide A solo 75 g ai/ha | Avena fatua [11]; herbicide A solo 75 g ai/ha | Avena fatua [11]; herbicide A solo 100 g ai/ha | Chenopodium album [12]
80%: Sorghum halepense [7]
90%: Lolium multiflorum; herbicide A solo 125 g ai/ha
70%: Sorghum halepense [1]; herbicide A solo 350 g ai/ha | Geranium dissectum
65%: Anthemis arvensis [2] | Avena fatua [11]; herbicide A solo 250 g ai/ha
75%: Setaria viridis [4]; herbicide A solo 43.8 g ai/ha | Setaria viridis [10]; herbicide A solo 25 g ai/ha
50%: Sorghum halepense [1]; herbicide A solo 175 g ai/ha | Polygonum convolvulus [3]; herbicide A solo 175 g ai/ha | Polygonum convolvulus [3]; herbicide A solo 350 g ai/ha | Chenopodium album [6]; herbicide A solo 125 g ai/ha | Lolium multiflorum; herbicide A solo 25 g ai/ha
40%: Sorghum halepense [1]; herbicide A solo 62.5 g ai/ha | Polygonum convolvulus [3]; herbicide A solo 250 g ai/ha
30%: Chenopodium album [6]; herbicide A solo 62.5 g ai/ha | Galium aparine; herbicide A solo 200 g ai/ha | Stellaria media; herbicide A solo 150 g ai/ha
